The numbers were not newly measured in patent US5534537A, “Prodrugs of inhibitors of farnesyl-protein transferase” (Merck & Co., Inc., priority 1995, dated 1996), which cites them from elsewhere.

The series has as its system farnesyl-protein transferase. As to conditions: via inhibition of HMG-CoA reductase, literature (Hancock et al.; Casey et al.; Schafer et al.).

In the case of `CC[C@H](C)C(=O)O[C@H]1CCC=C2C=C[C@H](C)[C@H](CC[C@@H]3C[C@@H](O)CC(=O)O3)[C@H]21` [compactin], the “Indirect inhibition of farnesyl-protein transferase in vivo” value is listed as “Indirect inhibition”.

On to `CC[C@H](C)C(=O)O[C@H]1C[C@@H](C)C=C2C=C[C@H](C)[C@H](CC[C@@H]3C[C@@H](O)CC(=O)O3)[C@H]21` [lovastatin], for which the “Indirect inhibition of farnesyl-protein transferase in vivo” value is “Indirect inhibition”.
